Consider 3 compounds from patent publication US20100184653A1, “Derivates of Polyethylene Glycol Modified Thymosin Alpha 1” (Jiangsu Hansen Pharmaceutical Co., Ltd., priority 2008, published 2010).

Residues, ends and D or L forms follow the SMILES beside them. No end group written: not given here.

A short description of series [1]: Pharmacokinetic test, half life after hypodermic injection. As to conditions: in vivo, subcutaneous.
For series [2] the following is noted: in body; cited from earlier work.
The subject of series [3] is T-lymphocytes (mice's spleen cells). The series is described as follows: ConA-induced IFN-γ production by mouse spleen T lymphocytes, ELISA of culture supernatant. The series is classed as cell-based, ICR mice. More on the design: Mean (IFN-γ, ConA-induced cytokine production): unit not given here. As to conditions: for Mean (IFN-γ, ConA-induced cytokine production): 24 hours. Here is the method: (§1) With Zadaxin as a positive control, the effect of the samples on T-lymphocytes producing cytokines were tested to confirm if the samples could adjust T-lymphocyte immune activity and the extent thereof.
(§2) In the lymphocytes cultured in vitro, T cell can be activated by the stimulation of mitosis Concanavalin A and brings change of cells' behavior such as cytokine synthesis, cytokine receptor expression, cell differentiation and cell proliferation. The generation of cytokine and proliferation of the cell are response of the immune cell function and cell activation. Detection means is reliable, simple, and with good repeatability, therefore, evaluating the samples' effect to the function of T lymphocytes by detecting cytokine generation and cell proliferation has been widely applied.
(§3) Preparation of spleen cell suspension: mice's spleen was obtained under aseptic condition, which was ground with frosted glass. The spleen cell suspension was thus obtained. After red blood lysis, the spleen cell suspension was washed three times, counted (live cells being more than 95%). The concentration of spleen cell was adjusted to 5×10^6 cells/ml with 10% FBS (bovine serum) RPMI1640 culture fluid.
(§4) The concentration of mice's Spleen cells was adjusted to 5×10^6 cells/ml, and then distributed it into 24 wells plate with 1 ml/well; samples with various concentrations were added into the plate respectively with 0.5 ml/well; and then ConA (20 ug/ml) was added with 0.5 ml/well. The samples were kept at 37° C. in CO2 incubator for 24 hours, centrifuged and collected culture supernatant.
(§5) Antibody Coating: The antibody was diluted with coating buffer and then was added into 96 well ELISA plates with 50 μL each wells. The plate was left overnight at […].
(§6) Blocking: The antibody coating buffer was removed, and the plate was washed 3 times with washing solution (PBS/Tween solution). 100 μL of blocking buffer (PBS/10% FBS) was added to each wells of the plates. The plate was incubated at room temperature for 1 hour.
(§7) Standards and samples: The blocking buffer was removed from the plates, which was washed 3 times with washing solution (PBS/Tween solution) and followed by adding standards and samples with 50 μL each wells. The plate was incubated at room temperature for 2 hours.
(§8) Detection of Antibody and Enzyme: The standards and samples were removed from the plates. The plate was washed 3 times with washing solution (PBS/Tween solution). The diluted detective antibody and enzyme HRP were added into the plate with 50 μL each wells. The plate was incubated at room temperature for 1 hour.
(§9) Substrate Staining: The diluted detection antibody and enzyme HRP were removed from the plate which was then washed 3 times with washing solution (PBS/Tween solution). The substrate resolved in citricic acid/hydrogen peroxide (TMB) was added into the plate with 50 μL each wells. The plate was incubated at room temperature away from the light for 30 minutes. After being stained, stop solution 2N H2SO4 was added into the plate with 25 μL per well.
(§10) OD Detection: The plate was placed into enzyme-labeled instrument and read OD values at 450 nm (calibrated value of 570 nm).
(In general: ELISA stands for enzyme-linked immunosorbent assay.)

The test system is the same in series [4]. The series is described as follows: ConA-induced IL-2 production by mouse spleen T lymphocytes, ELISA of culture supernatant. As to conditions: 24 hours. It counts as cell-based, ICR mice. Also on record: unit not given here. How it is done: as §1, §2, §3, §4, §5, §6, §7, §8, §9, §10

`CC[C@H](C)[C@H](NC(=O)[C@H](CCC(=O)O)NC(=O)[C@H](CO)NC(=O)[C@H](CO)NC(=O)[C@@H](NC(=O)[C@H](CC(=O)O)NC(=O)[C@@H](NC(=O)[C@H](C)NC(=O)[C@H](C)NC(=O)[C@H](CC(=O)O)NC(=O)[C@H](CO)NC(C)=O)C(C)C)[C@@H](C)O)C(=O)N[C@H](C(=O)N[C@H](C(=O)N[C@@H](CCCCN)C(=O)N[C@@H](CC(=O)O)C(=O)N[C@@H](CC(C)C)C(=O)N[C@@H](CCCCN)C(=O)N[C@@H](CCC(=O)O)C(=O)N[C@@H](CCCCN)C(=O)N[C@@H](CCCCN)C(=O)N[C@@H](CCC(=O)O)C(=O)N[C@H](C(=O)N[C@H](C(=O)N[C@@H](CCC(=O)O)C(=O)N[C@@H](CCC(=O)O)C(=O)N[C@@H](C)C(=O)N[C@@H](CCC(=O)O)C(=O)N[C@@H](CC(N)=O)C(=O)O)C(C)C)C(C)C)[C@@H](C)O)[C@@H](C)O` [Zadaxin, thymosin alpha 1] (Ac-SDAAVDTSSEITTKDLKEKKEVVEEAEN-OH): in series [1], the half-life (commonly the time in which the quantity being followed falls by half) was approximately 2 h. Also, the T1/2 in series [2] was 2 h.

For the compound “Ac-Ser-Asp-Ala-Ala-Val-Asp-Thr-Ser-Ser-Glu-Ile-Thr-Thr-Lys-Asp-Leu-Lys-Glu-Lys-Lys-Glu-Val-Val-Glu-Glu-Ala-Glu-Asn-Gly-Gly-Cys-PEG40K (Ac-SDAAVDTSSEITTKDLKEKKEVVEEAENGG-{C(branched 40K mPEG-maleimide)}) [T-GG-C-mPEG, thymosin alpha 1 peptide derivative modified with PEG; PEG40K: branched-chain (mPEG)2-MAL]”, the “activity of promoting the production of IFN-r by T cells” value in series [3] (all experimental concentrations) is listed as “showed activity”. Also, the “promoting the production of IFN-r by T cells” value in series [3] (compared with PEG-TA1) is “more effective than the thymosin alpha 1 modified with PEG at the N-terminal”. Besides, the “Mean (IFN-γ, ConA-induced cytokine production)” value amounted to 4703 in series [3] (sample 0.001 ug/ml); 4891 in series [3] (sample 0.01 ug/ml); 4654 in series [3] (sample 0.1 ug/ml); 4990 in series [3] (sample 1 ug/ml); 5102 in series [3] (sample 10 ug/ml); 5577 in series [3] (sample 100 ug/ml). Moreover, the “Mean (IL-2, ConA-induced cytokine production)” value was found to be 3409 in series [4] (sample 0.001 ug/ml); 3610 in series [4] (sample 0.01 ug/ml); 3530 in series [4] (sample 0.1 ug/ml); 3397 in series [4] (sample 1 ug/ml); 3618 in series [4] (sample 10 ug/ml); 3692 in series [4] (sample 100 ug/ml).

Regarding “PEG-TA1: thymosin alpha 1 modified with PEG (derivative when n was 0); b135 calls it modified at the N-terminal (SDAAVDTSSEITTKDLKEKKEVVEEAEN; not fully specified (N-terminus); ends and bridges not checked; also: PEG attached, site unclear; UniProt P06454 2-29, looked up)”, the “stimulation of the production of IFN-r by T cells” value in series [3] (compared with Zadaxin, several experimental concentration) was “more effective”. In addition, the “Mean (IFN-γ, ConA-induced cytokine production)” value was determined as 4809 in series [3] (sample 0.001 ug/ml); 4603 in series [3] (sample 0.01 ug/ml); 4141 in series [3] (sample 0.1 ug/ml); 4949 in series [3] (sample 1 ug/ml); 3874 in series [3] (sample 10 ug/ml); 5467 in series [3] (sample 100 ug/ml). In addition, the “Mean (IL-2, ConA-induced cytokine production)” value in series [4] (sample 0.001 ug/ml) came to 3505; in series [4] (sample 0.01 ug/ml), 3438; in series [4] (sample 0.1 ug/ml), 3339; in series [4] (sample 1 ug/ml) it was 3214; in series [4] (sample 10 ug/ml), 3348; in series [4] (sample 100 ug/ml) it was 3582.
